Tests used:
[1] = tested on: OATP1B1; assay: Pharmacogenomics: SLCO1B1 polymorphisms versus PK; format: in vivo, human; details: phenotype assigned by SLCO1B1 genotypes; data not shown
Description: The PK endpoints included maximum plasma concentration (Cmax), area under the concentration–time curve from time zero up to the last observable concentration (AUC0-last) and plasma accumulation of TAS4464 after multiple doses. PK parameters were evaluated on Day 1 of Cycle 1 and Day 15 of Cycle 1 in the weekly dosing cohort, as well as on Day 1 of the lead-in period and Day 1 of Cycle 1 in the weekly with lead-in dosing cohort. The evaluation of the relationship between solute carrier organic anion transporter family member 1B1 (SLCO1B1) genetic polymorphisms and PK (i.e., the mean and individual clearance [CL] and volume of distribution at steady-state [Vdss] by each OATP1B1 phenotype) was assessed as the PGx analysis endpoint.

[2] = tested on: 10 cytokines in peripheral blood; assay: Cytokines in peripheral blood (Luminex); format: in vivo, human
Description: (§1) Assessment of pharmacodynamics included evaluation of cullin-NEDD8, p27^Kip1 protein expression, and cytokines in peripheral blood samples. Expression of cullin-NEDD8 protein in peripheral blood mononuclear cells (PBMC) was analyzed using an enzyme-linked immunosorbent assay (ELISA). For the weekly dosing cohorts, changes from baseline in cullin-NEDD8 complexes in the PBMC on Day 1 and Day 2 of Cycle 1 as measured by ELISA were evaluated. For the weekly dosing with lead-in period cohorts, changes from baseline in cullin-NEDD8 complexes on Day 2 were evaluated. Expression of p27^Kip1 protein (cyclin-dependent kinase inhibitor 1B), a substrate of CRL, was determined by immunohistochemistry (IHC). p27^Kip1 IHC was performed on biopsy tumor specimens collected at baseline and Day 2 of Cycle 1, and their staining intensities were assessed using H-Scoring, with the scores compared between baseline and Day 2 of Cycle 1. […]

[3] = tested on: tumor cell lines; details: cited from earlier work
[4] = tested on: p27^Kip1 protein expression; assay: p27^Kip1 immunohistochemistry in biopsy tumor specimens; format: in vivo, human; details: Day 2 of Cycle 1, three patients; data not shown
Description: as §1

[5] = parameters: method as in unpublished data; details: TAS4464 combined with TNF-α; ref unpublished data; cited from earlier work
[6] = tested on: NAE; details: compared with MLN4924; cited from earlier work

CCOc1cccc(F)c1C#Cc1cn([C@@H]2O[C@H](CNS(N)(=O)=O)[C@@H](O)[C@H]2O)c2ncnc(N)c12 [TAS4464]
mean and individual CL and Vdss by OATP1B1 phenotype [1]: no obvious differences were observed | expression levels of the 10 cytokines in peripheral blood ([2]; five patients, weekly dosing with lead-in period cohort): no changes in the expression levels | peak expression of IL-1β, IFNγ, IL-12p40, IL-12p70, IL-17A, IL-1α and IL-2 versus baseline ([2]; one patient, weekly dosing with lead-in level 3, Day 3 of Cycle 1): more than four times higher than at baseline | inhibitory effects in cells ([3]; compared with MLN4924): greater inhibitory effects than MLN4924 | time course of antiproliferative effects ([3]; dose- and time-dependent increase): plateauing after 24 h | expression of p27^Kip1 in tumor specimens versus baseline [4]: almost unchanged or decreased | abnormal liver function tests [5]: Abnormal liver function tests were also observed | inhibitory effects in enzyme assays [6]: greater inhibitory effects than MLN4924
